The target of one data set is T1, hPin1 PPIase domain (Homo sapiens, UniProt Q13526).
T1 construct: The hPin1 PPIase domain comprising of amino acid residues Gly45-Glu163 was amplified by PCR; made in house; host or cells: E. coli BL21(DE3) (pET28a)
As to the kind of experiment: Isothermal titration calorimetry (ITC), isolated PPIase domain. In kind it is binding. As for the experimental part:
Calorimetric experiments were performed using a VP-ITC titration calorimeter (MicroCal, Inc, Northampton, Mass.) at 10° C. All solutions were degassed under vacuum prior to use. Solutions of hPin1 and hPin1 PPIase domain were dialyzed against 10 mM Hepes (pH 7.8). The protein concentration in the sample cell was adjusted to 6.5 μM using the same batch of buffer. Protein concentrations were determined as described above. The volume of the protein solution in the sample cell was 1.4 ml. The injection syringe was filled with 300 μl solution of peptide 17 (see table III) (250 μM in the same batch of buffer as used for dialyses). Each titration experiment consisted of a single 1 μl injection followed by 16 identical injections of 5 μl solution of peptide 17.
(§1) The stability of peptides 15 and 17 in cytoplasmic extracts from HeLa cells was investigated using MALDI-TOF mass spectrometry and capillary electrophoresis, respectively. In the cytosolic incubation mixture, streptavidin sepharose beads served to isolate peptide 15 fragments after prolonged incubation. […] Therefore, phosphopeptides are useless for evaluating Pin1 functions in vivo unless dephosphorylation can be avoided.
A general note: Isothermal titration calorimetry measures the heat released or taken up as one component is titrated into another.

A short description of data set [1]: Stability against cellular phosphatases and proteases in HeLa cell lysate. In kind it is in vitro ADME. The protocol:
FIG. 4 depicts the stability of peptide 17 against cellular phosphatases and proteases. Peptide 17 was incubated for 3 hours in HeLa cell lysate in the absence of phosphatase and protease inhibitors. The mixture was then analyzed by capillary electrophoresis (short dashed line). As controls, the untreated peptide 17 (solid line) and its nonphosphorylated derivative (dotted line) were used. The temperature of the capillary thermostating system was kept at 16° C. Separation buffer was 50 mM sodium phosphate, pH 7.0. Signals were detected at 220 nm.
Peptide 17 was incubated with HeLa cell lysate for 3 h and analyzed with capillary electrophoresis using UV detection at 220 nm on a P/ACE MDQ (Beckman Coulter, Palo Alto, Calif.) system. Fused-silica capillaries (Polymicro Technologies) of 40 cm length at an operation voltage of 20 kV were used. As references, untreated peptide 17 and its nonphosphorylated derivative were used. The samples were hydrodynamically injected with 3.45 kPa for 10 s. 50 mM sodium phosphate buffer (pH 7.0) was used as separation buffer. The system temperature was kept at 16° C.
as §1

The next data set addresses hPar14 (Homo sapiens, UniProt Q9Y237). As to the kind of experiment: Protease coupled PPIase assay, hPar14. The class given is biochemical. Particulars: up to 50 μM. The protocol: FIG. 6 depicts the influence of peptide 17 on the hPar14 PPIase activity. The apparent first order rate constant kobs determined for the cis to trans isomerization of the arginyl-prolyl peptide bond of the substrate Suc-Ala-Arg-Pro-Phe-NH-Np (SEQ ID NO: 3) was measured using the protease coupled PPIase assay. α-Chymotrypsin was used as isomer specific protease. As control, the nonphosphorylated derivative of peptide 17 was used.
PPIase activities were monitored on a Hewlett-Packard 8452A diode array spectrophotometer according to Fischer et al., 1984 and Zhang et al., 2002. The hPar14 PPIase activity was measured with Suc-Ala-Arg-Pro-Phe-NH-Np (SEQ ID NO: 3) (final concentration 75 μM) as substrate and α-chymotrypsin (final concentration 60 μM) as isomer specific protease. PPIase activity of hCyp 18 and FKBP12 were measured using Suc-Ala-Ala-Pro-Phe-NH-Np (SEQ ID NO: 7) as substrate (final concentration 16 μM) and α-chymotrypsin (final concentration 60 μM) as isomer specific protease. PPIase activity of hPin1 was measured with Ac-Ala-Ala-Ser(PO3H2)-Pro-Arg-NH-Np (SEQ ID NO: 4) (final concentration 10 μM) as substrate and trypsin (final concentration 60 μM) as isomer specific protease. Final concentrations of the PPIases were 1.7 μM for hPar14, 4 nM for hPin1, 7 nM for FKBP12 and 9.7 nM for hCyp18. […] Measurements were monitored at 390 nm. […]

The next data set has as its target FKBP12 (Homo sapiens, UniProt P62942). Nature of the data set: Protease coupled PPIase assay, FKBP12. The class given is biochemical. The protocol:
PPIase activities were monitored on a Hewlett-Packard 8452A diode array spectrophotometer according to Fischer et al., 1984 and Zhang et al., 2002. The hPar14 PPIase activity was measured with Suc-Ala-Arg-Pro-Phe-NH-Np (SEQ ID NO: 3) (final concentration 75 μM) as substrate and α-chymotrypsin (final concentration 60 μM) as isomer specific protease. PPIase activity of hCyp 18 and FKBP12 were measured using Suc-Ala-Ala-Pro-Phe-NH-Np (SEQ ID NO: 7) as substrate (final concentration 16 μM) and α-chymotrypsin (final concentration 60 μM) as isomer specific protease. PPIase activity of hPin1 was measured with Ac-Ala-Ala-Ser(PO3H2)-Pro-Arg-NH-Np (SEQ ID NO: 4) (final concentration 10 μM) as substrate and trypsin (final concentration 60 μM) as isomer specific protease. […] Measurements were monitored at 390 nm.
Data analysis was performed by single-exponential nonlinear regression using the SigmaPlot Scientific Graphing System Version 5.00 (Jandel Corp.). […] The rate constant k0 was determined in the absence of Pin1. The first order rate constants kenz was calculated from the equation kenz=kobs−k0. IC50 and Ki values were determined by fitting the first order rate constants kenz against the concentration of the inhibitory peptide by nonlinear regression according to Schutkowski et al., 1995 or a model for tight binding inhibitors (Morrison, 1969).

Square brackets hold non-standard residues; d marks the D form. Peptide text beside a SMILES is read from it. d(pT) = C[C@H](OP(=O)(O)O)[C@@H](N)C(=O)O; 2Nal = N[C@@H](Cc1ccc2ccccc2c1)C(=O)O; Pip = O=C(O)[C@@H]1CCCCN1

Chain of FKBP12 (P62942 whole entry): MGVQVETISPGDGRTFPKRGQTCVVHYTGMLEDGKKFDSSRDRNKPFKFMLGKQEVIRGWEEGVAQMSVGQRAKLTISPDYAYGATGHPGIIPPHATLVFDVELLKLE
T1 sequence (Q13526 45-163): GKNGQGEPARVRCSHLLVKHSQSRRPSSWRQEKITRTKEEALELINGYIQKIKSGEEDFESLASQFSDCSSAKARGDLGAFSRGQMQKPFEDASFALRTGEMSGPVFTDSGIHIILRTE
Chain of hPar14 (Q9Y237 whole entry): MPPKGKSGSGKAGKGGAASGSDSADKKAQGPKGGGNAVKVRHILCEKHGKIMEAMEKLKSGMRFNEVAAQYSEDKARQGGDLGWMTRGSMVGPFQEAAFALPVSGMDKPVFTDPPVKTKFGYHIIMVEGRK

As for `CC(=O)N[C@@H](Cc1ccccc1)C(=O)N[C@@H](C(=O)N1CCCC[C@H]1C(=O)N[C@@H](Cc1ccc2ccccc2c1)C(=O)N[C@@H](CCC(N)=O)C(N)=O)[C@H](C)OP(=O)(O)O` [Peptide 17, Ac-Phe-D-Thr(PO3H2)-Pip-Nal-Gln-NH2] (Ac-F[d(pT)][Pip][2Nal]Q-NH2), on hPin1 PPIase domain, the “thermodynamic constants, isolated PPIase domain versus full-length hPin1” value is listed as “same thermodynamic constants”. In data set [1] (3 hours of incubation, no phosphatase and protease inhibitors, capillary electrophoresis), the “stability against HeLa cell lysate” value is given as “complete stability”. In data set [1] (discussion statement (FIG. 4)), the stability in cytosol result is “sufficiently stable”. The “inhibition of hPar14 PPIase activity” value against hPar14 was “No inhibition”. The “inhibition of FKBP12” value at FKBP12 is on record as “no inhibition”.
